Source: PubChem BioAssay AID248 (DTP/NCI, 2004)
Toxic doses and inconclusive results are not listed. Cut-off read from the data, not from the text of the source: active = T/C of 150% or more; inactive = T/C below 125%.

Tested on: L1210 leukemia ip in BDF1 mice, survival T/C
Assay: NCI In Vivo Anticancer Drug Screen. Data for tumor model L1210 Leukemia (intraperitoneal) in B6D2F1 (BDF1) mice
Conditions: endpoint: mean survival time, higher = longer survival
In short: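 Ratio derived from survival: compound-dosed mice over vehicle-dosed mice, all bearing a transplantable tumor.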

[1] = dose: 100.0 mg/kg/injection, schedule: Q04DX003 (ip), vehicle: saline with Tween-80
[2] = dose: 200.0 mg/kg/injection, schedule: Q04DX003 (ip), vehicle: saline with Tween-80
[3] = dose: 400.0 mg/kg/injection, schedule: Q04DX003 (ip), vehicle: saline with Tween-80
[4] = dose: 100.0 mg/kg/injection, schedule: Q01DX009 (ip), vehicle: saline
[5] = dose: 200.0 mg/kg/injection, schedule: Q01DX009 (ip), vehicle: saline
[6] = dose: 400.0 mg/kg/injection, schedule: Q01DX009 (ip), vehicle: saline
[7] = dose: 100.0 mg/kg/injection, schedule: Q04DX002 (ip), vehicle: Klucel (hydroxypropylcellulose) (HPC)
[8] = dose: 200.0 mg/kg/injection, schedule: Q04DX002 (ip), vehicle: Klucel (hydroxypropylcellulose) (HPC)
[9] = dose: 400.0 mg/kg/injection, schedule: Q04DX002 (ip), vehicle: Klucel (hydroxypropylcellulose) (HPC)
[10] = dose: 200.0 mg/kg/injection, schedule: Q04DX003 (ip), vehicle: Klucel (hydroxypropylcellulose) (HPC)
[11] = dose: 100.0 mg/kg/injection, schedule: Q04DX003 (ip), vehicle: Klucel (hydroxypropylcellulose) (HPC)
[12] = dose: 400.0 mg/kg/injection, schedule: Q04DX003 (ip), vehicle: Klucel (hydroxypropylcellulose) (HPC)
[13] = dose: 100.0 mg/kg/injection, schedule: Q01DX009 (ip), vehicle: Klucel (hydroxypropylcellulose) (HPC)
[14] = dose: 200.0 mg/kg/injection, schedule: Q01DX009 (ip), vehicle: Klucel (hydroxypropylcellulose) (HPC)
[15] = dose: 400.0 mg/kg/injection, schedule: Q01DX009 (ip), vehicle: Klucel (hydroxypropylcellulose) (HPC)

Measured: T/C

NC(N)=N/N=C(/c1ccccc1)c1ccccc1N
inactive: dose: 15.0 mg/kg/injection, schedule: Q01DX Z (ip), vehicle: methylcellulose (MC) 105 % of control | dose: 30.0 mg/kg/injection, schedule: Q01DX Z (ip), vehicle: methylcellulose (MC) 102 % of control | dose: 60.0 mg/kg/injection, schedule: Q01DX Z (ip), vehicle: methylcellulose (MC) 105 % of control | dose: 120.0 mg/kg/injection, schedule: Q01DX Z (ip), vehicle: methylcellulose (MC) 97 % of control | dose: 120.0 mg/kg/injection, schedule: Q01DX Z (oral), vehicle: methylcellulose (MC) 88 % of control | dose: 240.0 mg/kg/injection, schedule: Q01DX Z (ip), vehicle: methylcellulose (MC) 88 % of control | dose: 240.0 mg/kg/injection, schedule: Q01DX Z (oral), vehicle: methylcellulose (MC) 98 % of control | dose: 480.0 mg/kg/injection, schedule: Q01DX Z (oral), vehicle: methylcellulose (MC) 101 % of control

C[CH2][Sn]([Cl])([CH2]C)[O][Sn]([Cl])([CH2]C)[CH2]C
inactive: dose: 3.12 mg/kg/injection, schedule: Q04DX003 (ip), vehicle: saline with Tween-80 100 % of control | dose: 6.25 mg/kg/injection, schedule: Q04DX003 (ip), vehicle: saline with Tween-80 100 % of control | dose: 12.5 mg/kg/injection, schedule: Q04DX003 (ip), vehicle: saline with Tween-80 106 % of control

CCC/C(=N/NC(=O)CNC(=O)c1ccccc1)c1ccccc1
inactive: dose: 100.0 mg/kg/injection, schedule: Q01DX009 (ip), vehicle: saline with Tween-80 100 % of control | dose: 200.0 mg/kg/injection, schedule: Q01DX009 (ip), vehicle: saline with Tween-80 96 % of control | dose: 400.0 mg/kg/injection, schedule: Q01DX009 (ip), vehicle: saline with Tween-80 92 % of control

Cc1c(N)c(C)c([N+](=O)[O-])c(C)c1N
inactive: [1] 91 % of control | [2] 98 % of control | [3] 98 % of control

CCOC(=O)Nc1ccc(SC)cc1
inactive: [4] 94 % of control | [5] 100 % of control | [6] 103 % of control

CSc1nc(C(Cl)Cl)cnc1Cl
inactive: [7] 102 % of control | [8] 91 % of control | [9] 105 % of control

C(=C/c1nc2ccccc2o1)/c1ccc2c(c1)OCO2
inactive: [7] 97 % of control | [8] 97 % of control | [9] 97 % of control

COc1ccc(/C=C/C(=O)c2ccccc2)cc1Br
inactive: [1] 100 % of control | [2] 96 % of control | [3] 96 % of control

Clc1cccc(/C=N/Nc2nnc(N/N=C/c3cccc(Cl)c3)c3ccccc23)c1
inactive: dose: 50.0 mg/kg/injection, schedule: Q01DX001 (ip), vehicle: saline 100 % of control | dose: 100.0 mg/kg/injection, schedule: Q01DX001 (ip), vehicle: saline 103 % of control | dose: 200.0 mg/kg/injection, schedule: Q01DX001 (ip), vehicle: saline 100 % of control | dose: 400.0 mg/kg/injection, schedule: Q01DX001 (ip), vehicle: saline 100 % of control

CCOC(=O)C(Cl)C(C)(O)c1ccccc1 (stereo not drawn)
inactive: dose: 100.0 mg/kg/injection, schedule: Q04DX002 (ip), vehicle: saline with Tween-80 95 % of control | dose: 200.0 mg/kg/injection, schedule: Q04DX002 (ip), vehicle: saline with Tween-80 95 % of control

O=S(=O)(Oc1cccc(C(F)(F)F)c1)c1cccc(C(F)(F)F)c1
inactive: dose: 6.25 mg/kg/injection, schedule: Q01DX009 (ip), vehicle: saline sonified 101 % of control | dose: 6.25 mg/kg/injection, schedule: Q04DX003 (ip), vehicle: Klucel (hydroxypropylcellulose) (HPC) 103 % of control | dose: 12.5 mg/kg/injection, schedule: Q01DX009 (ip), vehicle: saline sonified 97 % of control | dose: 12.5 mg/kg/injection, schedule: Q04DX003 (ip), vehicle: Klucel (hydroxypropylcellulose) (HPC) 109 % of control | dose: 25.0 mg/kg/injection, schedule: Q01DX009 (ip), vehicle: saline sonified 90 % of control | dose: 25.0 mg/kg/injection, schedule: Q04DX003 (ip), vehicle: Klucel (hydroxypropylcellulose) (HPC) 117 % of control | [10] 86 % of control

COC(=O)Cc1cn[nH]c1C(=O)OC
inactive: [4] 97 % of control | [11] 93 % of control | [5] 94 % of control | [10] 97 % of control | [6] 95 % of control | [12] 97 % of control

CC12CCC3c4ccccc4CCC3(CO1)C2 (stereo not drawn)
inactive: [13] 105 % of control | [11] 95 % of control | [14] 105 % of control | [10] 106 % of control | [15] 104 % of control | [12] 95 % of control

CCCCCCCCCCCCC#N
inactive: [13] 111 % of control | [11] 110 % of control | [14] 119 % of control | [10] 113 % of control | [15] 100 % of control | [12] 117 % of control

CC(C)(C)NC(=O)C1CC2(C)CCC1C2(C)C (stereo not drawn)
inactive: dose: 75.0 mg/kg/injection, schedule: Q01DX001 (ip), vehicle: other 93 % of control | dose: 150.0 mg/kg/injection, schedule: Q01DX001 (ip), vehicle: other 93 % of control

C[CH2][Sb]([CH2]C)([CH2]C)([O]C(C)=O)[O]C(C)=O
inactive: dose: 5.0 mg/kg/injection, schedule: Q04DX002 (ip), vehicle: saline with Tween-80 97 % of control | dose: 10.0 mg/kg/injection, schedule: Q04DX002 (ip), vehicle: saline with Tween-80 97 % of control | dose: 20.0 mg/kg/injection, schedule: Q04DX002 (ip), vehicle: saline with Tween-80 104 % of control

CCN(C(=O)Nc1ccc(OC)cc1)c1ccccc1C
inactive: [11] 99 % of control | [14] 96 % of control | [10] 96 % of control | [15] 102 % of control | [12] 96 % of control

C/C=C\C(=O)OC.[W]
inactive: dose: 50.0 mg/kg/injection, schedule: Q01DX009 (ip), vehicle: saline 97 % of control | [4] 105 % of control | [5] 108 % of control
